Here are results for one substance from publication PMC7608663, “Pharmacokinetic–pharmacodynamic modelling of the hypoglycaemic effect of pulsatile administration of human insulin in rats” (Scientific Reports, 2020).

In data set [1] the test system is INS receptors, rat soleus muscle cells. As to conditions: fixed value in the IR model, read-out: dissociation constant (Kd); cited from earlier work. An excerpt: In the post-prandial state, the uptake of glucose from the blood in vivo mainly occurs in skeletal muscle, which expresses INS receptors. […] Although there are various kinds of skeletal muscle in the body, it would not be useful to individually model each receptor in all skeletal muscles, because this complicates the model. […] We assumed that SIG is equal to the value of Φ in this model. To evaluate the contribution of the translocation process to the hypoglycaemic effect, the GLUT4 translocation-based PK–PD model (GT model) was designed as follows:7 dG4A/dt=α∙CIns-C00-G4A/TAB, 8 dG4B/dt=G4A/TAB-G4B/TBA. || page 3: Parameters Estimated values Pharmacokinetic parameters k12 (min-1) 0.843 ± 0.25 k (min-1) 0.419 ± 0.073 21 k10 (min-1) 0.000314 ± 0.0079 Km (ng/kg) 1538 ± 624 Vmax (ng/kg/min) 3243 ± 649 Vc (mL/kg) 29.3 ± 6.6 Pharmacodynamic parameters of the IR model Kd (nmol/L) 2.062 FIX SC50IR (%) 7.60 ± 1.8 SmaxIR 3.01 ± 0.31 γ 2.25 ± 1.8 IR kGoutIR (min-1) 0.0208 ± 0.0018 Pharmacodynamic parameters of the GT model α 0.153 ± 0.56 T (min) 3 FIX AB TBA (min) 20 FIX SC50GT 100.22 ± 354 SmaxGT 2.58 ± 1.3 γGT 0.736 ± 0.11 kGoutGT (min-1) 0.141 ± 0.021 Supplementary Table S1. Pharmacokinetic and pharmaco ...

The subject of data set [2] is plasma glucose concentration. Kind of data set: Hypoglycaemic effect (plasma glucose) after intravenous INS, PK-PD indirect response modelling. Type of data set: in vivo, rat. From the text:
An indirect response model was used to analyse the PK–PD relationship. The differential equation for the INS stimulus of the model is as follows:5 dGlc/dt=KGin-1+Smax∙SIG^γ/SC50^γ+SIG^γkGout∙Glc, where Glc is the plasma glucose concentration (mg/dL), SIG is the theoretical signal strength concerned with the hypoglycaemic effect of INS, Smax is the maximum effect, SC50 is the SIG producing 50% of Smax, r is Hill’s constant, KGin is the zero-order rate constant concerned with endogenous glucose production, and kGout is the first-order rate constant (min^−1) concerned with glucose elimination. Before INS is administered, the observed baseline level of Glc is maintained as G00 (105.12 mg/dL), which is determined by KGin = kGout.G00. Equation (5) can comprehensively express the mechanism of action of INS that is not assumed in the following model.
To assess the contribution of the receptor-binding process of INS to the hypoglycaemic effect, the INS receptor-based PK–PD model (IR model) was designed as follows:6 ϕ=CIns∙100/Kd+CIns-ϕ00.
We assumed that SIG is equal to the value of Φ in this model. To evaluate the contribution of the translocation process to the hypoglycaemic effect, the GLUT4 translocation-based PK–PD model (GT model) was designed as follows:7 dG4A/dt=α∙CIns-C00-G4A/TAB, 8 dG4B/dt=G4A/TAB-G4B/TBA. […]

For data set [3] the following is noted: rat, in vivo, iv; SD.
Protocol: Animal experiments were performed following the procedures as described earlier[26], with slight adaptations. In short, male Wistar rats (Japan SLC, Shizuoka, Japan) weighing 270–320 g were used in this study. Rats were housed in controlled environmental facilities (temperature: 24 ± 1 °C, humidity: 55% ± 10%) under a 12:12-h light–dark cycle (06:00 h/18:00 h) for more than 1 week and allowed free access to a standard diet and tap water. One day before the experiment, rats were anaesthetized with ethyl ether and implanted surgically with a phycon tube connected to a PE50 catheter in the jugular vein for drug administration and another phycon-PE50 catheter in the femoral vein for blood sampling. Both catheters were externalized through the back in the neck region and secured. Unless otherwise specified, all animal experiments were conducted without restraint or anaesthesia and in a fasted state. On the day of the experiment, each rat was housed in an individual cage and left alone for at least 1 h. INS was dissolved in a 0.1% bovine serum albumin solution. Pulsatile administration of INS was performed by repeated intravenous bolus injections at constant intervals of 6–60 min within 2 h (total dose: 0.5 IU/kg). As controls, a single bolus injection or 2-h infusion were also conducted at doses of 0.5 IU/kg and 0.25 IU/kg/h, respectively. INS (0.025–0.5 IU/kg) was intravenously injected to estimate PK and PD parameters. Blood samples (≤ 0.1 mL) were withdrawn from the femoral vein before and at designated times after dosing. The blood samples were transferred to heparinized tubes, then centrifuged (12,000 × g, 5 min). The isolated plasma was stored frozen at − 20 °C until analysis. Immunoreactive INS concentrations in plasma were determined using an enzyme-linked immunosorbent assay (ELISA) kit (Shibayagi, Gunma, Japan). The mutarotase glucose oxidase method kit (Wako Pure Chemical Industries, Osaka, Japan) was used to measure plasma glucose concentrations. […]
The concentration–time data were analysed by the nonlinear regression program FKDM[27]. […]

With Human recombinant INS (Humulin R), in data set [1], the dissociation constant Kd – broadly, a measure of binding affinity in units of concentration – is 2.06 nM. In addition, in data set [2] (after single i.v. bolus administration, rats (Fig. 3)), the “time required for the maximal hypoglycaemic effect” value was “about 20 min”. Moreover, the “area between the effect-time curve and the basal concentration (AUE), pulsatile administration compared with single bolus” value in data set [2] (total 0.5 IU/kg i.v. within 2 h, 2-20 pulses vs bolus 0.5 IU/kg, rats, depends on pulse rate, saturated above four injections, Dunnett's test, n = 3-4) is on record as “significantly higher”. Besides, in data set [3], the “Km, Michaelis-Menten kinetic constant of elimination” value was 1538 ± 624 ng/kg; the “Vc, volume of distribution for the central (plasma) INS compartment” value was 0.0293 ± 0.0066 L/kg; the “Vmax, Michaelis-Menten kinetic constant of elimination” value stood at 3243 ± 649 ng/kg/min.
